ChEMBL document CHEMBL1126757, “Benzoquinazoline inhibitors of thymidylate synthase: enzyme inhibitory activity and cytotoxicity of some 3-amino- and 3-methylbenzo[f]quinazolin-1(2H)-ones” (J Med Chem, 1993)

Columns and labels:
[1] = biological target: Thymidylate synthase (Homo sapiens, UniProt P04818)
[2] = biological target: Thymidylate synthase (Escherichia coli, UniProt C3SWJ7); experiment: Inhibition against thymidylate synthase (TS) in Escherichia coli; settings: read-out: I50
[3] = system: SW480; experiment: cells; settings: Homo sapiens

Chain of Thymidylate synthase (Escherichia coli, UniProt C3SWJ7) (C3SWJ7 whole entry): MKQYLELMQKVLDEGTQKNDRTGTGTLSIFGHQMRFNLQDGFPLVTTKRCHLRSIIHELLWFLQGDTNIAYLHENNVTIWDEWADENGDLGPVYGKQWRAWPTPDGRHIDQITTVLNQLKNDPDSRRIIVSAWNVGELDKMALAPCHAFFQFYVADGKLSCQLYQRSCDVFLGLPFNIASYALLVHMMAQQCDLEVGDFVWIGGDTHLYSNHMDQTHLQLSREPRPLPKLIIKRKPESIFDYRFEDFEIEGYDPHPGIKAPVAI
Chain of Thymidylate synthase (Homo sapiens, UniProt P04818) (P04818 whole entry): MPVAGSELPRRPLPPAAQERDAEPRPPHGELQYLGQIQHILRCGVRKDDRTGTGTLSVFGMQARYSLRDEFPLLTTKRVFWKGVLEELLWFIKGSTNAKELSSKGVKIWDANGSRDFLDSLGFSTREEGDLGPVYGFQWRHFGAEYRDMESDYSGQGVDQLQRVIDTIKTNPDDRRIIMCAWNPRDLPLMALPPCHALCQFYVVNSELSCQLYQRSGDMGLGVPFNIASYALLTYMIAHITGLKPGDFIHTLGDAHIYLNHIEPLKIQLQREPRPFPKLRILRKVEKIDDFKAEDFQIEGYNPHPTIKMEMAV

| IC50 [1] | IC50 [2] | IC50 [3] | SMILES |
| --- | --- | --- | --- |
| 0.37 µM | 3.6 µM | – | CC1Cc2nc(N)nc(O)c2-c2cc(Cl)ccc21 (centres undefined) |
| – | 28 µM | – | Nc1nc(O)c2c(ccc3cc(Br)c([N+](=O)[O-])cc32)n1 |
| – | 250 µM | – | COc1cccc2c1CCc1nc(N)nc(O)c1-2 |
| 7.5 µM | – | 100 µM | Nc1ccc2c(ccc3nc(N)nc(O)c32)c1 |
| – | 5 µM | – | Cc1cc(C)c2ccc3nc(N)[nH]c(=O)c3c2c1 |
| 4.2 µM | – | 20 µM | CCOc1ccc2ccc3nc(N)nc(O)c3c2c1 |
| – | 334 µM | – | Nc1nc2c(c(=O)[nH]1)-c1ccc(Cl)cc1CC2 |
| – | 119 µM | > 100 µM | Cc1nc2c(c(=O)[nH]1)-c1ccccc1CC2 |
| 6.9 µM | – | – | Cc1cc2nc(N)[nH]c(=O)c2c2ccc(Cl)cc12 |
| – | – | 50 µM | Cc1nc(O)c2c(ccc3c(Cl)cccc32)n1 |
| – | 23 µM | – | CC1Cc2nc(N)nc(O)c2-c2ccccc21 (centres undefined) |
| 193 µM | – | > 100 µM | Cc1nc2c(c(=O)[nH]1)-c1cccc(Cl)c1CC2 |
| 0.54 µM | – | 7 µM | O=CNc1nc(O)c2c(ccc3ccc(Br)cc32)n1 |
| 0.23 µM | – | 20 µM | Nc1nc(O)c2c(ccc3ccc(Br)c([N+](=O)[O-])c32)n1 |
| – | 4 µM | 80 µM | Nc1nc(O)c2c(n1)CCc1ccc(F)cc1-2 |
| – | 25 µM | – | Nc1nc2ccc3c(Br)c(N)c(Br)cc3c2c(=O)[nH]1 |
| – | 31.7 µM | 40 µM | CCSc1ccc2c(c1)-c1c(nc(N)[nH]c1=O)CC2 |
| – | 1.2 µM | 60 µM | CSc1ccc2c(c1)-c1c(nc(N)[nH]c1=O)CC2 |
| 15 µM | – | 60 µM | COCc1cc2nc(N)nc(O)c2c2ccccc12 |
| 26 µM | – | – | Nc1nc2ccc3c(Cl)cccc3c2c(=O)[nH]1 |
| – | 2 µM | 25 µM | Nc1nc(O)c2c(n1)CCc1ccc(Br)cc1-2 |
| – | 1 µM | – | Cc1cc2nc(N)[nH]c(=O)c2c2ccccc12 |
| – | 89 µM | – | Nc1ccc2c(c1)CCc1nc(N)[nH]c(=O)c1-2 |

| IC50 [1] | IC50 [2] | IC50 [3] | SMILES |
| --- | --- | --- | --- |
| – | 26.3 µM | 35 µM | C#Cc1ccc2c(c1)-c1c(nc(N)[nH]c1=O)CC2 |
| – | 32.8 µM | > 100 µM | Cc1nc(O)c2c(n1)CCc1ccc(F)cc1-2 |
| – | 109 µM | – | Nc1nc2c(c(=O)[nH]1)-c1cccc(Br)c1CC2 |
| – | 8.69 µM | 65 µM | Cc1nc2c(c(=O)[nH]1)-c1cc(Br)ccc1CC2 |
| 8.9 µM | – | – | Nc1nc2ccc3c(Br)cccc3c2c(=O)[nH]1 |
| – | 2.9 µM | 15 µM | Nc1nc2c(c(=O)[nH]1)-c1cc(Br)c(N)cc1CC2 |
| – | – | 12 µM | Oc1nc(NCc2ccccc2)nc2ccc3ccc(Cl)cc3c12 |
| – | 7 µM | > 100 µM | Nc1nc(O)c2c(n1)CCc1ccccc1-2 |
| – | 59 µM | – | Cc1cccc2c1CCc1nc(N)[nH]c(=O)c1-2 |
| 16.8 µM | – | 20 µM | Nc1nc2ccc3c(N)c(Br)ccc3c2c(=O)[nH]1 |
| – | – | 10 µM | Cc1nc(O)c2c(ccc3ccc(Cl)cc32)n1 |
| – | 1.6 µM | 25 µM | Nc1nc2c(c(=O)[nH]1)-c1cc(Cl)ccc1CC2 |
| – | 43 µM | – | Nc1nc(O)c2c(n1)CCc1cc([N+](=O)[O-])ccc1-2 |
| – | 6.9 µM | 6 µM | Cc1nc(O)c2c(ccc3ccc(Br)cc32)n1 |
| – | 240 µM | – | COc1ccc2c(c1)CCc1nc(N)nc(O)c1-2 |
| – | 5 µM | 15 µM | Nc1nc(O)c2c(n1)CCc1ccc(I)cc1-2 |
| – | – | 50 µM | Cc1nc(O)c2c(ccc3c(Br)cccc32)n1 |
| 34.5 µM | – | – | Nc1nc2ccc3cc(F)cc([N+](=O)[O-])c3c2c(=O)[nH]1 |
| – | 750 µM | 80 µM | Nc1nc2c(c(=O)[nH]1)-c1ccc(F)cc1CC2 |
| 45.4 µM | – | – | Nc1nc2ccc3cc(Cl)ccc3c2c(=O)[nH]1 |
| – | – | 50 µM | Cc1nc(O)c2c(ccc3c(I)cccc32)n1 |
| – | 104 µM | – | Nc1nc2ccc3c([N+](=O)[O-])c(Br)ccc3c2c(=O)[nH]1 |
| – | 97.5 µM | 12 µM | Nc1nc2c(c(=O)[nH]1)-c1cc(Br)c([N+](=O)[O-])cc1CC2 |
